Our source for the EC50 and CC50 values is patent US20250034182A1, “PHOSPHOLIPID COMPOUNDS AND METHODS OF MAKING AND USING THE SAME” (priority 2021, published 2025).

What all share (format): cell-based
In data set [1] the test system is Human Rhinovirus 14 (HRV14) in H1-HeLa cells. Nature of the data set: H1-HeLa HRV-CTG EC50, HRV14 (Example Z). Conditions: Rhinovirus B, HRV14, 96 h, MOI 1.0, 4 days, Celltiter-Glo, read-out: HRV14 HELA EC50 (nM) (per Ex. Z). An excerpt: (§1) H1-Hela cell line (ATCC, Manassas, VA, Cat #CRL-1958) was maintained in Dulbecco's […] (DMEM) (Corning, New York, NY, Cat #15-018CM) supplemented with 10% fetal bovine serum (FBS) (Hyclone, Logan, UT, Cat #SH30071-03), and 1× Penicillin-Streptomycin-L-Glutamine (Coming, New York, NY, Cat #30-009-C1). Cells were passaged 2 times per week to maintain sub-confluent densities and were used for experiments at passage 5-30. The Human Rhinovirus 1B (HRV1B) (ATCC, Manassas, VA, Cat #VR-1645), Human Rhinovirus 14 (HRV14) (ATCC, Manassas, VA, Cat #VR-284), and Human Rhinovirus 16 (HRV16) (ATCC, Manassas, VA, Cat #BR-283) was obtained through ATCC. Viral infection was monitored by determining viability of H1-HeLa cells as described below.
(§2) Test molecules are prepared in 100% DMSO in 384-well polypropylene plates (Greiner, Monroe, NC, Cat #784201) with 8 compounds per plate in grouped replicates of 4 at 10 serially diluted concentrations (1:3). The serially diluted compounds were transferred to low dead volume Echo plates (Labcyte, Sunnyvale, CA, Cat #LP-0200).
(§3) The test compounds were spotted to 384-well assay plates (Greiner, Monroe, NC, Cat #781091) at 200 nL per well using an Echo acoustic dispenser (Labcyte, Sunnyvale, CA). H1-HeLa cells were harvested and suspended in DMEM (supplemented with 2% FBS and 1× Penicillin-Streptomycin-L-Glutamine) and seeded to the pre-spotted assay plates at 5,000 cells per well in 30 μL. HRV1B, HRV14, and HRV16 was diluted in DMEM (supplemented with 2% FBS and 1× Penicillin-Streptomycin-L-Glutamine) at 97.1 million Infectious Units (IU) per mL, 151 million IU per mL and 221 million IU per mL respectively. 10 μL of virus per well was added to the assay plates containing cells and compounds, for an MOI of 0.5, 1.0, and 0.25 respectively. The assay plates were incubated for 4 days at 37° C. and 5% CO2. At the end of incubation, Celltiter-Glo (Promega, Madison, WI, Cat #G7573) was prepared. The assay plates and Celltiter-Glo reagent were equilibrated to room temperature for at least 15 minutes. 40 μL per well of Celltiter-Glo reagent was added and the plates were incubated at room temperature for 15 minutes before reading the luminescence signal on an EnVision multimode plate reader (Perkin Elmer, Waltham, MA). Rupintrivir was used as positive control and DMSO was used as negative control. Values were normalized to the positive and negative controls (as 0% and 100% replication, respectively) and data was fitted using non-linear regression analysis by Gilead's dose response tool. The EC50 value for each compound was defined as the concentration reducing viral replication by 50%.

For data set [2], the system named is Human Rhinovirus 16 (HRV16) in H1-HeLa cells. Put plainly: H1-HeLa HRV-CTG EC50, HRV16 (Example Z). The conditions noted are these: Rhinovirus A, HRV16, 96 h, MOI 0.25, 4 days, Celltiter-Glo, read-out: HRV 16 HELA EC50 (nM) (per Ex. Z).
Description: as §1, §2, §3
In general terms: Cellular ATP, detected with luciferase, serves as a proxy for viable cell number.

Data set [3] has as its system Human Rhinovirus 1B (HRV1B) in H1-HeLa cells. Put plainly: H1-HeLa HRV-CTG EC50, HRV1B (Example Z). Conditions: Rhinovirus A, 96 h, MOI 0.5, 4 days, Celltiter-Glo, read-out: HRV 1B HELA EC50 (nM) (per Ex. Z).
Description: as §1, §2, §3

Data set [4] in a line: RSV NHBE CC50 384 V2 (per Ex. U). Conditions: human.
Data set [5] in a line: RSV HEP2-CC50-384-V2 (per Ex. V). Conditions: human.

Some results are limits rather than exact numbers.

As a reminder, the EC50 is the concentration at which the effect is half-maximal. As a reminder, the CC50 is the concentration giving 50% cytotoxicity. With `CCCCCCCCCCCCCCCCCCC[C@H](COP(=O)(O)OC[C@@]1(C#N)O[C@@H](c2ccc3c(N)ncnn23)[C@H](O)[C@@H]1O)OCc1ccc(C#N)c(OC(C)C)c1` [Compound 28, ((2R,3S,4R,5S)-5-(4-aminopyrrolo[2,1-f][1,2,4]triazin-7-yl)-2-cyano-3,4-dihydroxytetrahydrofuran-2-yl)methyl ((R)-2-((4-cyano-3-isopropoxybenzyl)oxy)henicosyl) hydrogen phosphate], the values for the EC50 in data set [1], in data set [2] and in data set [3] were 47 nM, 51 nM and 36 nM, respectively. Also, the values for the CC50 at 3 days in data set [4] and in data set [5] were 7560 nM and 30600 nM, respectively.
In the same order, the values of `CCCCCCCCCCCCCCCCCCC[C@H](COP(=O)(O)OC[C@@]1(C#N)O[C@@H](c2ccc3c(N)ncnn23)[C@H](O)[C@@H]1O)OCc1ccc(-n2cncn2)c(C#N)c1` [Compound 30, ((2R,3S,4R)-5-(4-aminopyrrolo[2,1-f][1,2,4]triazin-7-yl)-2-cyano-3,4-dihydroxytetrahydrofuran-2-yl)methyl ((R)-2-((3-cyano-4-(1H-1,2,4-triazol-1-yl)benzyl)oxy)henicosyl) hydrogen phosphate] are 12 nM, 11 nM, 7 nM, 1720 nM and 33100 nM.
On the same counts, the results for `CCCCCCCCCCCCCCCCCCCC[C@H](COP(=O)(O)OC[C@@]1(C#N)O[C@@H](c2ccc3c(N)ncnn23)[C@H](O)[C@@H]1O)OCc1cc(F)cc(C#N)c1` [Compound 34, ((2R,3S,4R)-5-(4-aminopyrrolo[2,1-f][1,2,4]triazin-7-yl)-2-cyano-3,4-dihydroxytetrahydrofuran-2-yl)methyl ((R)-2-((3-cyano-5-fluorobenzyl)oxy)docosyl) hydrogen phosphate] are 276 nM, 316 nM, 281 nM, 7250 nM and over 43200 nM.
On the same counts, the results for `CCCCCCCCCCCCCCCCC[C@H](COP(=O)(O)OC[C@@]1(C#N)O[C@@H](c2ccc3c(N)ncnn23)[C@H](O)[C@@H]1O)OCc1cc(F)cc(C#N)c1` [Compound 36, ((2R,3S,4R,5S)-5-(4-aminopyrrolo[2,1-f][1,2,4]triazin-7-yl)-2-cyano-3,4-dihydroxytetrahydrofuran-2-yl)methyl ((R)-2-((3-cyano-5-fluorobenzyl)oxy)nonadecyl) hydrogen phosphate] are 113 nM, 112 nM, 102 nM, 2740 nM and over 50000 nM.
As to `CCCCCCCCCCCCCCCCCC[C@@H](COP(=O)(O)OC[C@@]1(C#N)O[C@@H](c2ccc3c(N)ncnn23)[C@H](O)[C@@H]1O)OCc1cc(F)cc(C#N)c1` [Compound 37, ((2R,3S,4R)-5-(4-aminopyrrolo[2,1-f][1,2,4]triazin-7-yl)-2-cyano-3,4-dihydroxytetrahydrofuran-2-yl)methyl ((S)-2-((3-cyano-5-fluorobenzyl)oxy)icosyl) hydrogen phosphate], the EC50 is 183 nM in data set [1], 249 nM in data set [2] and 332 nM in data set [3]. Further, the CC50 at 3 days was 3110 nM in data set [4] and over 38100 nM in data set [5].
In the same order, the values of `CCCCCCCCCCCCCCCCCCC[C@H](COP(=O)(O)OC[C@@]1(C#N)O[C@@H](c2ccc3c(N)ncnn23)[C@H](O)[C@@H]1O)Oc1ccc(C#N)c(OC(C)C)c1` [Compound 38, ((2R,3S,4R,5S)-5-(4-aminopyrrolo[2,1-f][1,2,4]triazin-7-yl)-2-cyano-3,4-dihydroxytetrahydrofuran-2-yl)methyl ((R)-2-(4-cyano-3-isopropoxyphenoxy)henicosyl) hydrogen phosphate] are 28 nM, 29 nM, 12 nM, 7990 nM and 35300 nM.
In the same order, the values of `CCCCCCCCCCCCCCCCCCC[C@H](COP(=O)(O)OC[C@@]1(C#N)O[C@@H](c2ccc3c(N)ncnn23)[C@H](O)[C@@H]1O)Oc1cc(OC)c(C#N)c(OC)c1` [Compound 39, ((2R,3S,4R,5S)-5-(4-aminopyrrolo[2,1-f][1,2,4]triazin-7-yl)-2-cyano-3,4-dihydroxytetrahydrofuran-2-yl)methyl ((R)-2-(4-cyano-3,5-dimethoxyphenoxy)henicosyl) hydrogen phosphate] are 34 nM, 35 nM, 18 nM, 6460 nM and over 41400 nM.
On the same counts, the results for `CCCCCCCCCCCCCCCCCCOCC(COc1cc(F)cc(C#N)c1)COP(=O)(O)OC[C@@]1(C#N)O[C@@H](c2ccc3c(N)ncnn23)[C@H](O)[C@@H]1O` (stereo partly drawn) [Compound 43, ((2R,3S,4R,5S)-5-(4-aminopyrrolo[2,1-f][1,2,4]triazin-7-yl)-2-cyano-3,4-dihydroxytetrahydrofuran-2-yl)methyl (3-(3-cyano-5-fluorophenoxy)-2-((octadecyloxy)methyl)propyl) hydrogen phosphate] are 75 nM, 53 nM, 36 nM, 11900 nM and over 30300 nM.
For `CCCCCCCCCCCCCCCCCCCC[C@H](COP(=O)(O)OC[C@@]1(C#N)O[C@@H](c2ccc3c(N)ncnn23)[C@H](O)[C@@H]1O)Oc1cccc(C#N)c1` [Compound 51, ((2R,3S,4R,5S)-5-(4-aminopyrrolo[2,1-f][1,2,4]triazin-7-yl)-2-cyano-3,4-dihydroxytetrahydrofuran-2-yl)methyl ((R)-2-(3-cyanophenoxy)docosyl) hydrogen phosphate], the EC50 turned out to be 49 nM in data set [1], 34 nM in data set [2] and 33 nM in data set [3]. Further, the CC50 at 3 days was 8330 nM in data set [4] and over 46200 nM in data set [5].
In the same order, the values of `CCCCCCCCCCCCCCCCCOC[C@H](COP(=O)(O)OC[C@@]1(C#N)O[C@@H](c2ccc3c(N)ncnn23)[C@H](O)[C@@H]1O)OCc1cc(F)cc(C#N)c1` [Compound 53, ((2R,3S,4R,5S)-5-(4-aminopyrrolo[2,1-f][1,2,4]triazin-7-yl)-2-cyano-3,4-dihydroxytetrahydrofuran-2-yl)methyl ((R)-2-((3-cyano-5-fluorobenzyl)oxy)-3-(heptadecyloxy)propyl) hydrogen phosphate] are 35 nM, 35 nM, 34 nM, 2820 nM and 32100 nM.
In the same order, the values of `CCCCCCCCCCCCCCCCCCOC[C@H](COP(=O)(O)OC[C@@]1(C#N)O[C@@H](c2ccc3c(N)ncnn23)[C@H](O)[C@@H]1O)OCc1cccc(C#N)n1` [Compound 68, ((2R,3S,4R)-5-(4-aminopyrrolo[2,1-f][1,2,4]triazin-7-yl)-2-cyano-3,4-dihydroxytetrahydrofuran-2-yl)methyl ((R)-2-((6-cyanopyridin-2-yl)methoxy)-3-(octadecyloxy)propyl) hydrogen phosphate] are 35 nM, 20 nM, 12 nM, 2060 nM and 42800 nM.
